Patent US5972894A, “Peptides having potassium channel opener activity” (Cytran, Inc., priority 1997, dated 1999)

Experiments:
Intestinal Smooth Muscle = assay: Calcium-induced contraction of intestinal smooth muscle specimens; format: cell-based, guinea pigs; conditions: 20 mM CaCl2
Description: GE and VT served as test substances in this experiment. GE was tested at concentrations of 10^-6 g/ml and 10^-5 g/ml (4.9×10^-6 M and 4.9×10^-5 M, respectively), and VT was tested at concentrations 10^-6 g/ml and 10^-5 g/ml (4.58×10^-6 and 4.58×10^-5 M, respectively).
Small intestinal SMS samples from ten guinea pigs were surgically isolated and prepared as follows. First, the SMS samples were preincubated for 40 minutes in an organ bath holding a standard Krebs-Henseleit physiological salt solution containing calcium chloride (CaCl2) at concentration of 2.5 mM. Next, each SMS was washed with a calcium-free solution of Krebs-Henseleit and incubated in a calcium-free Krebs-Henseleit solution for 40 minutes. Contractile activity was pre-induced in each SMS by first perfusing the organ bath containing the sample for 15 minutes with a Krebs-Henseleit solution containing 30 mM KCl and then perfusing the bath for an additional 15 minutes with a Krebs-Henseleit solution containing 20 mM CaCl2. Finally, each SMS sample was washed with a calcium-free Krebs-Henseleit solution for 40 minutes. In these experiments, measurements of the contractile response of the SMS following the addition of a Krebs-Henseleit solution containing 20 mM calcium served as the control (baseline). Changes in contraction amplitudes were recorded by using the method set forth in Step 1 of Example 2, above.
After washing the SMS as outlined in Step 1, the organ bath with the SMS sample was perfused for 15 minutes with the solution of a test or reference substance. In this instance, GE and VT served as the test substances, and each dipeptide was tested at a concentration of 10^-6 g/ml.
Following perfusion with the test or reference substance, the SMS sample/organ bath was perfused for 10 minutes with a Krebs-Henseleit solution containing 30 mM KCl and then perfused for an additional 10 minutes with a Krebs-Henseleit solution containing 20 mM CaCl2. Next, each SMS sample was washed with a calcium-free Krebs-Henseleit solution for 40 minutes. The effect of the test or reference substance on the SMS sample was evaluated by measuring the contractile response (i.e., the change in contraction amplitude) of the sample following the addition of the Krebs-Henseleit solution containing 20 mM CaCl2.
Next, the organ bath was perfused for 10 minutes with a Krebs-Henseleit solution containing 30 mM KCl and then for additional 10 minutes with a Krebs-Henseleit solution containing 20 mM CaCl2. The effect of the respective test or reference substance was evaluated a second time by measuring the change in the contraction amplitude of the SMS following the addition of the Krebs-Henseleit solution containing 20 mM CaCl2. […]

rats [1] = assay: CPK activity in blood serum 1 hour after coronary occlusion; format: in vivo; conditions: dose printed --; i.v.; 1 hour after coronary occlusion
Description: White random-bred male rats weighing approximately 200 g were anesthetized using a light ether administration and then immobilized and artificially ventilated. […] Immediately after ligation, a test substance, positive, control substance, or negative control substance (described below) was administered to a rat through a catheterized femoral vein. Each dose of each test substance or positive or negative control substance was administered to an experimental or control group of 9 test rats. In this study, GE and VT served as test substances, propranolol served as the positive control substance, and physiological saline served as the negative control substance. Each test rat in an experimental group was given a dose of either 0.1, 1.0, or 10.0 milligram GE per kilogram of body weight of the subject animal (mg/kg) or 0.1, 1.0, or 10.0 milligram VT per kilogram of body weight of the animal. Each animal of the positive control group received an intravenous dose of 0.5 mg of β-adrenergic blocking agent, propranolol (Obzidan, Germed, Germany) per kilogram of body weight. Propranolol is commonly used to manage cardiac arrhythmia and there is some evidence that the agent may reduce the extent of ischemic damage to the heart. […] Each animal of the negative control group received physiological saline.
One hour after initiation of the coronary artery occlusion, each test animal was sacrificed, its blood was collected, and the CPK activity in its blood serum was measured. CPK activity was determined by using a standard biochemical method, such as that commercially available from the Lachema Company (Czechia) in its test kit, and by following the manufacturer's process instructions included in the package insert.
As a supplementary control for the possible trauma caused by the surgical procedure, a group of 9 sham-operated rats was included in the study. These test animals were subjected to chest dissection, but not to coronary artery occlusion. These "sham-operated" animals were not treated with any test or control substances and were euthanized 1 hour after surgery. Their blood was then collected for determination of CPK activity.

rats [2] = assay: Early ischemic myocardial arrhythmias after coronary artery ligation; format: in vivo; conditions: 0.5 mg/kg i.v.; 30 min after coronary occlusion
Description: White random-bred male rats weighing 200 g were given light ether anesthesia and were then immobilized and artificially ventilated. The descending branch of the left coronary artery of each rat was ligated. Immediately following ligation, a test or control substance was administered to each rat through the catheterized femoral vein, and an ECG recording was initiated (standard lead II) and maintained for the next 30 minutes.
GE and VT served as test substances and were administered to animals in the respective test groups at doses of 0.1, 1.0, and 10.0 mg/kg. The β-adrenergic blocking agent, propranolol (Obzidan, Germed, Germany), served as the positive control substance and was administered intravenously to each animal in the positive control group at a dose of 0.5 mg/kg. Physiological saline served as the negative control substance and was administered intravenously to animals in the negative control group. Each dose of each test or control substance was tested separately on a group of nine animals.
The following parameters were evaluated based upon the ECG recordings: (i) the number of ventricular extrasystoles that occurred within a 30-minute observation period following coronary occlusion; (ii) the overall cumulative duration of ventricular tachycardias (i.e., the summation of duration of individual paroxysmal ventricular rhythm disturbances in seconds) occurring within the 30-minute observation period; and (iii) the overall duration (in seconds) of the ventricular fibrillations occurring within the 30-minute observation period. The data were processed electronically and statistical comparisons were made between the values obtained from the animals in the experimental test groups and those in the different respective control groups.

[3] = system: Smooth Muscle Cells of Rat Portal Vein; assay: Spontaneous contractile activity of rat portal vein smooth muscle specimens; format: cell-based; conditions: 5×10^-7 g/ml
Description: Rat portal vein SMS samples were surgically isolated from random bred rats weighing 200-250 g. The suitability of each isolated rat portal vein SMS was established by measuring the spontaneous contraction response and its contractile response of the specimen to potassium chloride (KCl) as follows. Each isolated SMS was placed into an organ bath with standard Krebs-Henseleit (KH) solution at 35° C. Then, 0.5 ml of physiological saline were added into the organ bath. In this procedure, one end of the smooth muscle strip was fixed, while the other end of the muscle strip was connected with a probe which transmitted contraction-induced signals to an analog-to-digital converter. The spontaneous contraction curve for each SMS was recorded by taking repeated measurements over a 1-minute period. Next, 0.5 ml of a 600 mM solution of KCl in physiological saline was added to the SMS sample/organ bath to achieve a final concentration of 60 mM KCl. KCl induces contraction of rat portal vein tissue at a fmal tissue concentration of about 60 mM.
The KCl-induced contraction curve for each specimen sample was then recorded over the next 5-minute period. […] During this stabilization period, the spontaneous contraction curve for each SMS was verified by monitoring the data obtained from analog-to-digital converter.
To each SMS in the organ bath prepared according to Steps 2 and 3 above, 0.5 ml of physiological saline was added, and the spontaneous contraction curve was recorded for 1 minute. Each spontaneous contraction curve served as baseline (control) curve for comparison with the respective spontaneous contraction of each SMS in the presence of a test substance or reference substance.
Spontaneous contraction curve values for each SMS were recorded by making repetitive measurements of the spontaneous contractile activity of each sample at 2, 5, 10, and 15 minutes after the addition of the test or reference substance to each SMS/organ bath. Next, 0.5 ml of a solution of 600 mM solution of KCl in […] in the organ bath until a final concentration of 60 mM KCl was achieved. The contractile activity of each SMS was then measured for 5 minutes.

For `CN1[C@@H]2CC[C@H]1C[C@@H](OC(=O)C(CO)c1ccccc1)C2` (stereo partly drawn) [Atropine, atropine], which “Contraction Amplitude, calcium-induced (% of control level)” value (Intestinal Smooth Muscle; Application I, 10^-7 g/ml) is on record?
Its value is 39.57%.

What about the “Contraction Amplitude, calcium-induced (% of control level)” value (Intestinal Smooth Muscle; Application II, 10^-6 g/ml) of the same compound?
The value was 25.08%.

Which “Contraction Amplitude, calcium-induced (% of control level)” value (Intestinal Smooth Muscle; Application I, 10^-9 g/ml) does the source give for `COc1ccc([C@@H]2Sc3ccccc3N(CCN(C)C)C(=O)[C@@H]2OC(C)=O)cc1` [Diltiazem, diltiazem] here?
Its value is 39.02%.

And the “Contraction Amplitude, calcium-induced (% of control level)” value (Intestinal Smooth Muscle; Application II, 10^-8 g/ml)?
Its value is 12.95%.

Which “CPK Activity in blood serum” value (rats [1]) does the source give for `CC(C)NCC(O)COc1cccc2ccccc12` (stereo not drawn) [Propranolol, propranolol, reference compound] here?
Its value is 0.170 (±0.011) mcCat/L.

And the “Number of Ventricular Extrasystoles” value (rats [2])?
The value was 61.22.

What about the “Overall Duration of Ventricular Tachycardia” value (rats [2]) of the same compound?
The value was 56.74 s.

`COc1ccc(CCN(C)CCCC(C#N)(c2ccc(OC)c(OC)c2)C(C)C)cc1OC` (stereo not drawn) [Verapamil, reference compound] was tested. Which “Amplitude of spontaneous contraction (% of Control)” value (from here on “Amplitude … (% of Control)”) ([3]; 2 min after application) did it give?
The value was 95.82%.

What about the “Area Under Curve of spontaneous contraction (% of Control)” value (shortened to “Area Under Curve … (% of Control)”) ([3]; 2 min after application) of the same compound?
Its value is 82.41%.

What about the “Amplitude … (% of Control)” value ([3]; 5 min after application) of the same compound?
Its value is 78.58%.

And the “Area Under Curve … (% of Control)” value ([3]; 5 min after application)?
The value was 62.11%.

What about the “Amplitude … (% of Control)” value ([3]; 10 min after application) of the same compound?
Its value is 60.79%.

And the “Area Under Curve … (% of Control)” value ([3]; 10 min after application)?
The value was 49.83%.

What about the “Amplitude … (% of Control)” value ([3]; 15 min after application) of the same compound?
Its value is 37.92%.

What about the “Area Under Curve … (% of Control)” value ([3]; 15 min after application) of the same compound?
The value was 35.13%.
